pEC50: −log10 of the molar value. In brackets after ≈: the same amount, converted by molar mass. Read-outs that look alike come from different tables or passages of the source.
Columns and labels:
HBV = HBV DNA Quantification Assay; type: cell-based; details: Hepatitis B virus
Method: A HepG2 cell line overexpressing the HBV virus attachment receptor sodium-taurocholate cotransporting polypeptide (NTCP) was grown to confluency in DMEM growth medium, Dulbecco's Modified Eagle Medium without sodium pyruvate (Life Technologies, Rockville, Md.) supplemented with 10% FBS (Thermo Scientific, Waltham, Md.), 1% penicillin/streptomycin (Life Technologies, Rockville, Md.) and 2 mM L-glutamine (Life Technologies, Rockville, Md.) in T175 flasks. Cells were infected with HBV AD38 viral particles (Texcell, Frederick, USA) at 4000 genome equivalents per cell. After allowing viral infection to take place for 4 days, the infected cells were harvested from the flasks by trypsinization, washed twice with OptiMEM (Life Technologies, Rockville, Md.) and re-suspended in DMEM containing 2% FBS and 1% DMSO at a density of 0.25E6 cells/ml. Infected cells were seeded on 384 well collagen coated plates (Greiner, Austria) at a density of 20,000 cells/well containing serially diluted compounds of the present disclosure or DMSO (0.5%) in a final volume of 80 μl. The assay plates were incubated for a period of 5 days and the antiviral activity of the test compounds were assayed by detecting the presence of HBV DNA in the culture supernatant using the QuantiGene™ 2.0 nucleic acid quantification kit (Affymetrix, Santa Clara, Calif.).
The culture supernatant was harvested and treated with lysis buffer containing Proteinase K (Affymetrix, Santa Clara, Calif.). The supernatant was incubated with HBV viral DNA specific probes (Affymetrix, Santa Clara, Calif.) for 30 minutes at 55° C. This was followed by addition of 0.2M NaOH for 30 minutes at room temperature to denature the DNA, followed by addition of Neutralization buffer (Affymetrix, Santa Clara, Calif.). The resulting lysed and neutralized supernatant was then added to QuantiGene™ 2.0 384 well plates coated with capture oligonucleotides and incubated overnight at 55° C. The HBV specific probe set consists of Capture Extender oligonucleotides (CE's) and blocking probes. Following the overnight incubation, the wells were incubated for one hour sequentially with a Pre-Amplifier, Amplifier and Labeled probes conjugated to alkaline phosphatase with a wash step between incubations. After the final wash step, the alkaline phosphatase substrate (Luminol APS5) was added and the resulting luminescence signal was read in an EnVision Multilabel Plate Reader (PerkinElmer, Santa Clara, Calif.). The EC50 values were calculated from the fit of the dose-response curves to a four-parameter equation. All EC50 values represent geometric mean values of a minimum of four determinations.

Kinetic Solubility = type: physicochemical; details: kinetic from dmso stock, 0.2 to 100 μM, BD Gentest Solubility Scanner
Method: The 10 mM DMSO stock solution of the test compound is serially diluted into a 96-well “DMSO stock dilution plate”. Then Pipette 2 μL from the DMSO stock dilution plate into the “Sample plate” and dilute with 198 µL of the assay media to generate the final concentrations of the test compound ranging from 0.2 to 100 μM. The “Sample plate” is run on a BD Gentest Solubility Scanner.

[1] = 120 h, HepG2 cell line overexpressing NTCP infected with HBV AD38 viral particles, HBV DNA in culture supernatant after 5 days, geometric mean of a minimum of four determinations, read-out: EC50
[2] = aqueous buffer, pH = 7, read-out: Kinetic Solubility at pH = 7
[3] = simulated gastric fluid, pH = 1, read-out: Kinetic Solubility at pH = 1

SMILES | pEC50 (HBV; [1]) | solubility kinetic (Kinetic Solubility; [2]) | solubility kinetic (Kinetic Solubility; [3]) | pEC50 (HBV; HepG2, 120 h)
Cc1c(C(=O)Nc2cc(F)c(F)c(F)c2)c2n(c1C(=O)C(=O)NC1(c3cnn[nH]3)CC(F)(F)C1)CCC2 [Example 18] | 8.62 | 52.7 µM (≈ 27.5 µg/mL) | 50 µM (≈ 26.1 µg/mL) | 
CNC(=O)C1(NC(=O)C(=O)c2c(C)c(C(=O)Nc3ccc(F)cc3)c3n2CCC3)CC(F)(F)C1 [Example 45, 5-(2-((3,3-difluoro-1-(methylcarbamoyl)cyclobutyl)amino)-2-oxoacetyl)-N-(4-fluorophenyl)-6-methyl-2,3-dihydro-1H-pyrrolizine-7-carboxamide] | 7.25 | 95.3 µM (≈ 45.4 µg/mL) | 99.9 µM (≈ 47.6 µg/mL) | 
Cc1c(C(=O)Nc2ccc(F)cc2)c2n(c1C(=O)C(=O)NC1(c3cnn[nH]3)CC(F)(F)C1)C[C@H]1C[C@@H]21 [Example 14, (1aS,6bR)-4-(2-((3,3-difluoro-1-(1H-1,2,3-triazol-4-yl)cyclobutyl)amino)-2-oxoacetyl)-N-(4-fluorophenyl)-5-methyl-1,1a,2,6b-tetrahydrocyclopropa[a]pyrrolizine-6-carboxamide] | 8.59 | 61.4 µM (≈ 30.6 µg/mL) | 57.1 µM (≈ 28.5 µg/mL) | 
Cc1c(C(=O)Nc2ccc(F)c(F)c2)c2n(c1C(=O)C(=O)NC1(c3c[nH]nn3)CC1)CCC2 [Example 40, 5-(2-((1-(1H-1,2,3-triazol-4-yl)cyclopropyl)amino)-2-oxoacetyl)-N-(3,4-difluorophenyl)-6-methyl-2,3-dihydro-1H-pyrrolizine-7-carboxamide] | 7.83 | 2.9 µM (≈ 1.32 µg/mL) | 4.9 µM (≈ 2.23 µg/mL) | 
CNC(=O)C1(NC(=O)C(=O)c2c(C)c(C(=O)Nc3ccc(F)c(C#N)c3)c3n2CCC3)CC(F)(F)C1 [Example 28, N-(3-cyano-4-fluorophenyl)-5-(2-((3,3-difluoro-1-(methylcarbamoyl)cyclobutyl)amino)-2-oxoacetyl)-6-methyl-2,3-dihydro-1H-pyrrolizine-7-carboxamide] | 6.53 | 25.3 µM (≈ 12.7 µg/mL) | 55.7 µM (≈ 27.9 µg/mL) | 
Cc1c(C(=O)Nc2ccc(F)c(C(F)F)c2)c2n(c1C(=O)C(=O)NC1(c3c[nH]nn3)CC1)CCC2 [Example 27, 5-(2-((1-(1H-1,2,3-triazol-4-yl)cyclopropyl)amino)-2-oxoacetyl)-N-(3-(difluoromethyl)-4-fluorophenyl)-6-methyl-2,3-dihydro-1H-pyrrolizine-7-carboxamide] | 7.64 | 2.7 µM (≈ 1.31 µg/mL) | 8.4 µM (≈ 4.09 µg/mL) | 
Cc1c(C(=O)Nc2ccc(F)c(F)c2)c2n(c1C(=O)C(=O)NC1(c3cnn[nH]3)CC(F)(F)C1)[C@H]1C[C@H]1C2 [Example 23, (1aS,6aS)-3-(2-((3,3-difluoro-1-(1H-1,2,3-triazol-5-yl)cyclobutyl)amino)-2-oxoacetyl)-N-(3,4-difluorophenyl)-4-methyl-1,1a,6,6a-tetrahydrocyclopropa[a]pyrrolizine-5-carboxamide] | 7.50 | 49.4 µM (≈ 25.5 µg/mL) | 62 µM (≈ 32 µg/mL) | 
CNC(=O)C1(NC(=O)C(=O)c2c(C)c(C(=O)Nc3ccc(F)c(F)c3)c3n2C[C@@H]2C[C@H]32)CC(F)(F)C1 [Example 22, (1aR,6bS)-4-(2-((3,3-difluoro-1-(methylcarbamoyl)cyclobutyl)amino)-2-oxoacetyl)-N-(3,4-difluorophenyl)-5-methyl-1,1a,2,6b-tetrahydrocyclopropa[a]pyrrolizine-6-carboxamide] | 7.50 | > 100 µM | > 100 µM | 
CNC(=O)C1(NC(=O)C(=O)c2c(C)c(C(=O)Nc3ccc(F)c(C(F)F)c3)c3n2CCC3)CC(F)(F)C1 [Example 41] | 7.68 | > 100 µM | > 100 µM | 
Cc1c(C(=O)Nc2cc(F)c(F)c(F)c2)c2n(c1C(=O)C(=O)NC1(c3nncs3)CC(F)(F)C1)CCC2 [Example 1, 5-(2-((3,3-difluoro-1-(1,3,4-thiadiazol-2-yl)cyclobutyl)amino)-2-oxoacetyl)-6-methyl-N-(3,4,5-trifluorophenyl)-2,3-dihydro-1H-pyrrolizine-7-carboxamide] | 8.60 | 1.7 µM (≈ 0.917 µg/mL) | < 1 µM | 
CNC(=O)C1(NC(=O)C(=O)c2c(C)c(C(=O)Nc3ccc(F)c(Cl)c3)c3n2CCC3)CC(F)(F)C1 [Example 35] | 7.85 | 3.4 µM (≈ 1.74 µg/mL) | 9.1 µM (≈ 4.65 µg/mL) | 
COCc1cc(NC(=O)c2c(C)c(C(=O)C(=O)NC3(c4nncs4)CC(F)(F)C3)n3c2CCC3)ccc1F [Example 50] | 7.48 |  |  | 
Cc1c(C(=O)Nc2ccc(F)c(F)c2)c2n(c1C(=O)C(=O)N[C@](C)(C(N)=O)C(F)(F)F)CCC2 [Example 47, (R)-5-(2-((3-amino-1,1,1-trifluoro-2-methyl-3-oxopropan-2-yl)amino)-2-oxoacetyl)-N-(3,4-difluorophenyl)-6-methyl-2,3-dihydro-1H-pyrrolizine-7-carboxamide] | 7.27 |  |  | 
O=C(NC1(c2nncs2)CC1)C(=O)c1c(Cl)c(C(=O)Nc2ccc(F)c(F)c2)c2n1CCC2 [Example 52, 5-(2-((1-(1,3,4-thiadiazol-2-yl)cyclopropyl)amino)-2-oxoacetyl)-6-chloro-N-(3,4-difluorophenyl)-2,3-dihydro-1H-pyrrolizine-7-carboxamide] | 7.96 |  |  | 
O=C(NC1(c2c[nH]nn2)CC1)C(=O)c1c(Cl)c(C(=O)Nc2ccc(F)c(C(F)F)c2)c2n1CCC2 [Example 56] | 7.52 |  |  | 
Cc1c(C(=O)Nc2ccc(F)c(F)c2)c2n(c1C(=O)C(=O)N[C@@](C)(C(N)=O)C(F)(F)F)CCC2 [Example 48, (S)-5-(2-((3-amino-1,1,1-trifluoro-2-methyl-3-oxopropan-2-yl)amino)-2-oxoacetyl)-N-(3,4-difluorophenyl)-6-methyl-2,3-dihydro-1H-pyrrolizine-7-carboxamide] | 7.19 |  |  | 
O=C(NC1(c2c[nH]nn2)CC(F)(F)C1)C(=O)c1c(Cl)c(C(=O)Nc2ccc(F)c(C(F)F)c2)c2n1CCC2 [Example 55, 6-chloro-5-(2-((3,3-difluoro-1-(1H-1,2,3-triazol-4-yl)cyclobutyl)amino)-2-oxoacetyl)-N-(3-(difluoromethyl)-4-fluorophenyl)-2,3-dihydro-1H-pyrrolizine-7-carboxamide] | 8.52 |  |  | 
O=C(NC1(c2c[nH]nn2)CC(F)(F)C1)C(=O)c1c(Cl)c(C(=O)Nc2ccc(F)c(F)c2)c2n1CCC2 [Example 54, 6-chloro-5-(2-((3,3-difluoro-1-(1H-1,2,3-triazol-4-yl)cyclobutyl)amino)-2-oxoacetyl)-N-(3,4-difluorophenyl)-2,3-dihydro-1H-pyrrolizine-7-carboxamide] | 8.80 |  |  | 
COCc1cc(NC(=O)c2c(C)c(C(=O)C(=O)NC3(c4c[nH]nn4)CC(F)(F)C3)n3c2CCC3)ccc1F [Example 51] | 7.35 |  |  | 
Cc1c(C(=O)Nc2ccc(F)c(C(F)F)c2)c2n(c1C(=O)C(=O)NC1(c3nncs3)CC(F)(F)C1)CCC2 [Example 49, 5-(2-((3,3-difluoro-1-(1,3,4-thiadiazol-2-yl)cyclobutyl)amino)-2-oxoacetyl)-N-(3-(difluoromethyl)-4-fluorophenyl)-6-methyl-2,3-dihydro-1H-pyrrolizine-7-carboxamide] | 8.49 |  |  | 
Cc1c(C(=O)Nc2ccc(F)c(F)c2)c2n(c1C(=O)C(=O)NC1(c3cn(C[Si](C)(C)C)nn3)CC1)CCC2 [Example 12] |  |  |  | 7.03
Cc1c(C(=O)Nc2ccc(F)cc2)c2n(c1C(=O)C(=O)NC1(c3cnnn3C)CC(F)(F)C1)CCC2 [Example 7, 5-(2-((3,3-difluoro-1-(1-methyl-1H-1,2,3-triazol-5-yl)cyclobutyl)amino)-2-oxoacetyl)-N-(4-fluorophenyl)-6-methyl-2,3-dihydro-1H-pyrrolizine-7-carboxamide] | 7.75 |  |  | 
O=C(NC1(c2c[nH]nn2)CC1)C(=O)c1c(Cl)c(C(=O)Nc2ccc(F)c(F)c2)c2n1CCC2 [Example 53, 5-(2-((1-(1H-1,2,3-triazol-4-yl)cyclopropyl)amino)-2-oxoacetyl)-6-chloro-N-(3,4-difluorophenyl)-2,3-dihydro-1H-pyrrolizine-7-carboxamide] | 8.16 |  |  | 

— patent US10836769B2, “Substituted pyrrolizine compounds and uses thereof” (Gilead Sciences, Inc., priority 2018, dated 2020)
